Experiments:
[1] = Stability in simulated gastric fluid (SGF)
[2] = target: T1, HDAC7 (Homo sapiens, UniProt Q8WUI4); experiment: Fluorescence-based HDAC inhibition assay, HDAC7; format: biochemical; details: for IC50: 10 μM Boc-Lys(TFA)-AMC substrate, mean of two experiments ± SEM
T1 construct: made in house; host or cells: HEK293/T17 cells, transient transfection
T1 sequence (Q8WUI4 1-952): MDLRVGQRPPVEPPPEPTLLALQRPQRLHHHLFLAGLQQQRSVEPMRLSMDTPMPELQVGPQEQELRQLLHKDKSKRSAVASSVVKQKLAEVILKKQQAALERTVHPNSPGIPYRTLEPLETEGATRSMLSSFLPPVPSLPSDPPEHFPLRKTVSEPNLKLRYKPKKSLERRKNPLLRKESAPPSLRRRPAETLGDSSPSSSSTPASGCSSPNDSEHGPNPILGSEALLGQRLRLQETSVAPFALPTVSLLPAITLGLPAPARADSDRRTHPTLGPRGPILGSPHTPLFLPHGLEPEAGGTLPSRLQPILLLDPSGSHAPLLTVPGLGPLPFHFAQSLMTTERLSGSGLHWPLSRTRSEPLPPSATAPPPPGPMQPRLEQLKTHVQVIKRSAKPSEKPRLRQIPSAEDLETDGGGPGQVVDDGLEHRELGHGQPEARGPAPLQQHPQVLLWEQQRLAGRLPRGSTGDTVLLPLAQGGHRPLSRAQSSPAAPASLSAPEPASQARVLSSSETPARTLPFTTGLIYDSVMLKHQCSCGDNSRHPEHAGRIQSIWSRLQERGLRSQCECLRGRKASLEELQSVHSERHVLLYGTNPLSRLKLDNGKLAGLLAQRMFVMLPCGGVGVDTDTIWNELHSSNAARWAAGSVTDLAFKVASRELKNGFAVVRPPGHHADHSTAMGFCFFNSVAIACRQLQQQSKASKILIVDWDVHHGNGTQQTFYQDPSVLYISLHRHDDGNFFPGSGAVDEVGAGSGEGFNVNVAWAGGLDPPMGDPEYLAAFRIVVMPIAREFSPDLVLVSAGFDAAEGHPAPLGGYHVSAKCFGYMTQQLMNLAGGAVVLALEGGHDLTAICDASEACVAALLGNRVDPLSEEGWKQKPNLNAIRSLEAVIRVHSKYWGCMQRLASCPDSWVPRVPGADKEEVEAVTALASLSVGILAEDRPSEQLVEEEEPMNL
Experimental: (§1) Briefly, transiently transfected cells were harvested three days post-transfection and the cell pellets resuspended in a lysis buffer (50 mM Tris, 150 mM NaCl, 10 mM KCl, 2 mM MgCl2, 10% glycerol, 0.2% NP-40, 2 Units/mL benzonase, pH 8) supplemented with a cocktail of protease inhibitors (Roche, Basel, Switzerland). Cells were lysed by sonication (30 W; 3×20 s) on ice, and the cell lysate cleared by centrifugation at 40 000×g for 30 min at 4° C. […] Purified proteins were concentrated to 1 mg/mL, aliquoted, flash-frozen in liquid nitrogen, and stored at −80° C. until further use.
(§2) Briefly, individual HDACs were preincubated with dilution series of tested inhibitors (0-100 μM) in a 384-well plate in the total volume of 40 μL for 10 min at 37° C. in a reaction buffer comprising 50 mM HEPES, 140 mM NaCl, 10 mM KCl, 1 mM TCEP, 0.1% BSA, pH 7.4. Deacetylation reaction was started by the addition of 10 μL of a 10 μM substrate into the HDAC/inhibitor mixture. Following the 30 min incubation at 37° C., the reaction was terminated by the addition of 25 μL of the trypsin solution (4 mg/mL). Fluorescence development by trypsin was carried out at 37° C. for 15 and 60 min for Ac-GAK(Ac)-AMC and Boc-Lys(TFA)-AMC substrate, respectively. […] Non-linear regression analysis was employed to calculate IC50 values using the GraphPad Prism software. […] Reactions without the enzyme or the inhibitor were used to define 0% and 100% of the HDAC activity, respectively.

[3] = target: T2, HDAC1 (Homo sapiens, UniProt Q13547); experiment: Fluorescence-based HDAC inhibition assay, HDAC1; format: biochemical
T2 construct: made in house; host or cells: HEK293/T17 cells, transient transfection
T2 sequence (Q13547 whole entry): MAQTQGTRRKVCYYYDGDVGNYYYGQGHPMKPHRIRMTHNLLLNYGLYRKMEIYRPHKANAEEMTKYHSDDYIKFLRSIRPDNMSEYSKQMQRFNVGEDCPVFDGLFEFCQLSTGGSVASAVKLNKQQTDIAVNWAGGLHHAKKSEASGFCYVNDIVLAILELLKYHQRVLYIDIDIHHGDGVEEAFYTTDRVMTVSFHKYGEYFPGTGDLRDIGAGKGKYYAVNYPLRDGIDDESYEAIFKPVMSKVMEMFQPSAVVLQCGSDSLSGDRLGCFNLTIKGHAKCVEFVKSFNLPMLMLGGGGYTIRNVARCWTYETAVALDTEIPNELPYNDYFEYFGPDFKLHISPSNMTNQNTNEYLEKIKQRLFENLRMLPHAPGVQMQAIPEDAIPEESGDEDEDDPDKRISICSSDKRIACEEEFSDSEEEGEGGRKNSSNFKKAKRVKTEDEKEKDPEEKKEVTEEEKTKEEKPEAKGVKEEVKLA
Experimental: as §1, §2

[4] = target: T3, HDAC2 (Homo sapiens, UniProt Q92769); experiment: Fluorescence-based HDAC inhibition assay, HDAC2; format: biochemical; details: for IC50: 10 μM Ac-GAK(Ac)-AMC substrate, mean of two experiments ± SEM
T3 construct: made in house; host or cells: HEK293/T17 cells, transient transfection
T3 sequence (Q92769 whole entry): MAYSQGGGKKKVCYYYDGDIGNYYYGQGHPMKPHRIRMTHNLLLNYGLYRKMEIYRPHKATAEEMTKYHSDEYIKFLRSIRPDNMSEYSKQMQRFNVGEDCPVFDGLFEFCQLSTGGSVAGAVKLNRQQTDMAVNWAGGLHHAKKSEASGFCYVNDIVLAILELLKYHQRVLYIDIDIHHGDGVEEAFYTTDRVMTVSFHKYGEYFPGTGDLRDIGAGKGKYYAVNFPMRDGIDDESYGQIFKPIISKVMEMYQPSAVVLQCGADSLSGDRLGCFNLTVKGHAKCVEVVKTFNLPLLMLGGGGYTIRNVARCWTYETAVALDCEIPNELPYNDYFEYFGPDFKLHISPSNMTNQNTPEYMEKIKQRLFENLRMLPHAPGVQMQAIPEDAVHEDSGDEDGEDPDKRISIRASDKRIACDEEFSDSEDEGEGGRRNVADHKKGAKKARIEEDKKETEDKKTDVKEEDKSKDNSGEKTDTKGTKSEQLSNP
Experimental: as §1, §2

[5] = mean with standard error
[6] = target: T4, HDAC5 (Homo sapiens, UniProt Q9UQL6); experiment: Fluorescence-based HDAC inhibition assay, HDAC5; format: biochemical; details: for IC50: 10 μM Boc-Lys(TFA)-AMC substrate, mean of two experiments ± SEM
T4 construct: made in house; host or cells: HEK293/T17 cells, transient transfection
T4 sequence (Q9UQL6 whole entry): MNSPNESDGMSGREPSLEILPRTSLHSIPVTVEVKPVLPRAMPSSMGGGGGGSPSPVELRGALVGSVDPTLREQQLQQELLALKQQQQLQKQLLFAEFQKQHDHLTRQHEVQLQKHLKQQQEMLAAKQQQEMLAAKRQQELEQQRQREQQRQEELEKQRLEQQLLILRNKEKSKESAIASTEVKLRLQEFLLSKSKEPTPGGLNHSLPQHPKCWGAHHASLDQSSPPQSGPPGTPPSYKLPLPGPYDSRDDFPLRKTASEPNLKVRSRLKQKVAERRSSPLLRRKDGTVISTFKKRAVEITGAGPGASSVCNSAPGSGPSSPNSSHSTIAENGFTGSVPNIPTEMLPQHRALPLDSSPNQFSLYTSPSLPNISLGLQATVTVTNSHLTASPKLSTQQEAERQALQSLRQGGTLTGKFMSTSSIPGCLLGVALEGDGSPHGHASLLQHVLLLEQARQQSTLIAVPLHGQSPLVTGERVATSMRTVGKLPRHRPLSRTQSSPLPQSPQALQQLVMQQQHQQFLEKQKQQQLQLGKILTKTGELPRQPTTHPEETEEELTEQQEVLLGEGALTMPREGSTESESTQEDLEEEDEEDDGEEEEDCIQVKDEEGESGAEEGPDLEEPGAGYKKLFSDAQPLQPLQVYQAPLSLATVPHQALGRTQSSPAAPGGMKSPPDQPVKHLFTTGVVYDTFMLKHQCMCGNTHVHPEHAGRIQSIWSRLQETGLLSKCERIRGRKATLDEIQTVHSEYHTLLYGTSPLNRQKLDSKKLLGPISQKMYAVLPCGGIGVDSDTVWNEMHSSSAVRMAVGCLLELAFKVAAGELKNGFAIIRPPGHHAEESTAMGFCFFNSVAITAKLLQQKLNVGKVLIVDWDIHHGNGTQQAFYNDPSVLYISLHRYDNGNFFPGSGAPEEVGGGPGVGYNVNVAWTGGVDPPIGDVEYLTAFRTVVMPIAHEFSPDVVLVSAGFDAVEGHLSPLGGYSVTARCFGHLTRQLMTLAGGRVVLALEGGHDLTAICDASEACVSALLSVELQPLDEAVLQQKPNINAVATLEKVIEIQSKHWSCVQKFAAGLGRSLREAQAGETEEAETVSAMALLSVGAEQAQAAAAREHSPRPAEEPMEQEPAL
Experimental: as §1, §2

[7] = test system: plasma protein; experiment: Protein binding in human plasma; details: plasma protein-bound fraction, mean with standard error
[8] = target: T5, HDAC9 (Homo sapiens, UniProt Q9UKV0); experiment: Fluorescence-based HDAC inhibition assay, HDAC9; format: biochemical; details: for IC50: 10 μM Boc-Lys(TFA)-AMC substrate, mean of two experiments ± SEM
T5 construct: made in house; host or cells: HEK293/T17 cells, transient transfection
T5 sequence (Q9UKV0 whole entry): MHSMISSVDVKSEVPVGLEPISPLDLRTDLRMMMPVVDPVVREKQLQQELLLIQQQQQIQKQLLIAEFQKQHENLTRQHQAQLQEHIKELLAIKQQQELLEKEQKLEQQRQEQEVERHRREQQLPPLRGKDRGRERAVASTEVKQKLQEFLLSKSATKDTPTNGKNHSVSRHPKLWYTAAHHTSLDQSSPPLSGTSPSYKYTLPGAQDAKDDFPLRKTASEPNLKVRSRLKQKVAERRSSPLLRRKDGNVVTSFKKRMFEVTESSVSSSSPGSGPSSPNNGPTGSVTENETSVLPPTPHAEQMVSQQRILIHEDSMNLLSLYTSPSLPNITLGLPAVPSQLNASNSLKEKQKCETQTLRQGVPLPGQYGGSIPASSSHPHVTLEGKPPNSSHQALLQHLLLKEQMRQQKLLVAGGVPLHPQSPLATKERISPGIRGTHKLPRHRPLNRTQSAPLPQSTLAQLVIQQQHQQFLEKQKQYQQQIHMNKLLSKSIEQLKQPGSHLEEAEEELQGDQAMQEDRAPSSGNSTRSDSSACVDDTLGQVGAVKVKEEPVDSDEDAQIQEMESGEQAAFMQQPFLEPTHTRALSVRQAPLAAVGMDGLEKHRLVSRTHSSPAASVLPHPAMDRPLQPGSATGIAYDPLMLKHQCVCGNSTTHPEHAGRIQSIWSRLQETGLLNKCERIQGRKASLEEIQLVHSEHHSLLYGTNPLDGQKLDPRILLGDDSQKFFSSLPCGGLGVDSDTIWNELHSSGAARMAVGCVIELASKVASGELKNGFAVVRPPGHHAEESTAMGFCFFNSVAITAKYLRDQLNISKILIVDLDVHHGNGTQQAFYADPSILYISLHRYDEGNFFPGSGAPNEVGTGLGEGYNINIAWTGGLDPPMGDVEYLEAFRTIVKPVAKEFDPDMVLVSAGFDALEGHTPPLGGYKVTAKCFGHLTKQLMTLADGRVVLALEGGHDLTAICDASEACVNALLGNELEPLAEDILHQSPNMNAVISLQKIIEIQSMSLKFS
Experimental: as §1, §2

[9] = 10 μM Ac-GAK(Ac)-AMC substrate, mean of two experiments ± SEM

## O=C(NO)c1ccc(CN(CCCCO)C(=O)Nc2ccccc2)cc1 [Compound 6c, reference compound]
[1]
  SGF stability (t1/2, h): >5 h
[2]
  IC50: 1930 nM
[3]
  SI (HDAC6 selectivity index over HDAC1): 296
[3]; [9]
  IC50: 148 ± 9 nM
[4]
  SI (HDAC6 selectivity index over HDAC2): 536
  IC50: 268 ± 16 nM
[5]
  Rat liver microsomes (t1/2, min): 198 min
[6]
  IC50: 9130 nM
[7]
  Human plasma binding (%): approximately 50%
[8]
  SI (HDAC6 selectivity index over HDAC9): 59,50
  IC50: 29700 nM

## CCCCN(Cc1ccc(C(=O)NO)cc1)C(=O)Nc1ccc(CN)cc1 [Compound 6b, 4-((3-(4-(Aminomethyl)phenyl)-1-butylureido)methyl)-N-hydroxybenzamide]
[1]
  SGF stability (t1/2, h): >5 h
[2]
  SI (HDAC6 selectivity index over HDAC7): 10,000
  IC50: 9000 nM
[3]
  SI (HDAC6 selectivity index over HDAC1): 89
[3]; [9]
  IC50: 80 ± 45 nM
[4]
  SI (HDAC6 selectivity index over HDAC2): 312
  IC50: 281 ± 28 nM
[5]
  Rat liver microsomes (t1/2, min): 173 min
[6]
  SI (HDAC6 selectivity index over HDAC5): 11,200
  IC50: 10100 nM
[7]
  Human plasma binding (%): approximately 50%
[8]
  SI (HDAC6 selectivity index over HDAC9): 19,200
  IC50: 17300 nM

## NCc1ccc(NC(=O)N(CCCCO)Cc2ccc(C(=O)NO)cc2)cc1 [Compound 6a, 4-((3-(4-(Aminomethyl)phenyl)-1-(4-hydroxybutyl)ureido)methyl)-N-hydroxybenz-amide]
[1]
  SGF stability (t1/2, h): >5 h
[2]
  SI (HDAC6 selectivity index over HDAC7): 3,680
  IC50: 1470 nM
[3]
  SI (HDAC6 selectivity index over HDAC1): 293
[3]; [9]
  IC50: 117 ± 10 nM
[3]; Table 2
  IC50: 117 ± 10 nM
[3]; ratio HDAC1 IC50 / HDAC6 IC50, Table 2
  HDAC1/6: 293
[4]
  SI (HDAC6 selectivity index over HDAC2): 440
  IC50: 176 ± 21 nM
[5]
  Rat liver microsomes (t1/2, min): 177 min
[6]
  SI (HDAC6 selectivity index over HDAC5): 8,550
  IC50: 3420 nM
[7]
  Human plasma binding (%): 1.9%
[7]; listed as Suprastat
  Human plasma binding (%): 1.9%
[8]
  SI (HDAC6 selectivity index over HDAC9): 15,700
  IC50: 6270 nM
